Results as given in patent US20260375165A1, “ENGINEERED HUMAN SERINE DEHYDRATASE ENZYMES AND METHODS FOR TREATING CANCER” (BOARD OF REGENTS, THE UNIVERSITY OF TEXAS SYSTEM, priority 2022, published 2026).
Numbering of substitutions follows the chain as printed.

What was measured:
Assay type in all cases: biochemical
[1] = molecular target: T1, human serine dehydratase (hSDH, EC 4.3.1.17), wild type, SEQ ID NO: 1 (Homo sapiens, UniProt P20132); assay: MBTH assay, kcat/Km of purified wild-type hSDH; conditions: role: substrate
T1 construct: hexahistidine (N); made in house; host or cells: E. coli BL21 (DE3), pET28a
T1 sequence (P20132 1-328): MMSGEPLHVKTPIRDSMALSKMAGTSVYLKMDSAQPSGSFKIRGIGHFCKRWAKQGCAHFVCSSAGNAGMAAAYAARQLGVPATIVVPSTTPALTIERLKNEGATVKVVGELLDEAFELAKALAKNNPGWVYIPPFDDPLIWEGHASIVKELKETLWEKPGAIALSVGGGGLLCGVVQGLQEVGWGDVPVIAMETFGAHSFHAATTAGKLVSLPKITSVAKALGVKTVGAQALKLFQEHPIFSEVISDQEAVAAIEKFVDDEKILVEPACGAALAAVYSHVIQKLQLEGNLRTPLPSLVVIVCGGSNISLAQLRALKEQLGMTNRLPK
Protocol: (§1) Human SDH variants were expressed and purified for subsequent biophysical characterization. In brief, hSDH variants in the pET28a plasmid was transformed into BL21 (DE3) for expression. The cells were grown overnight at 37 °C in 5 mL of TB media with 50 μg/mL of kanamycin. The subsequent morning, cultures were inoculated, at a 1:1000 dilution, into 0.5 L of fresh TB media containing 50 μg/mL of kanamycin. Upon reaching an A600 of 0.6 to 0.8, the culture was moved to 25 °C and isopropyl β-D-1-thiogalactopyranoside (IPTG) was added to a final concentration of 1 mM to induce T7 RNA polymerase expression, and subsequently hSDH variant protein expression. After overnight incubation, cells were harvested via centrifugation at 5,500 rpm for 20 minutes. The cell pellet, after removing the supernatant, was resuspended using 25 mL of pET lysis buffer (10 mM NaH2PO4, 30 mM imidazole, 300 mM NaCl, pH 8.0). The cell suspension was then lysed by sonication and cleared by centrifugation at 14,000 rpm for 40 minutes. The supernatant from this centrifugation step was then filtered using a 0.22 μm membrane. The clarified supernatant was then applied to 1 mL of nickel-nitrotriacetic acid (Ni-NTA) resin that had been pre-equilibrated with 20 mL of pET lysis buffer. The resin was washed with 20 mL (20 column volumes) of pET lysis buffer. Afterward, the resin was incubated with 3 mL of pET elution buffer (10 mM NaH2POd4, 250 mM imidazole, 300 mM NaCl, pH 8.0), equilibrated for 5 minutes, and then eluted. The elution step was then repeated with 2 ml of extra elution buffer to increase recovery. […] Purity of the proteins were analyzed via sodium dodecyl sulfate-polyacrylamide gel electrophoresis (SDS-PAGE) on a 4% to 20% pre-cast Tris-Glycine gel run under reducing conditions (2.5% β-Mercaptoethanol (BME). Protein concentration was determined via A280 under denaturing conditions using a calculated extinction coefficient (8280=33960 M^−1 cm^−1) from Geneious software (v. 8.0.5). […]

[2] = molecular target: T2, human serine dehydratase (hSDH) Variant 5 (I13T, S26N, R51H, I96T, D114E, G129D, K221R, A222G, W157R, D261L, L112S), SEQ ID NO: 6 (Homo sapiens, UniProt P20132, A222G/D114E/D261L/G129D/I13T/I96T/K221R/L112S/R51H/S26N/W157R); assay: MBTH assay, kcat/Km of purified hSDH Variant 5; conditions: role: substrate; threonine 1-100 mM, 1-2 μM enzyme, 37 °C, 20 seconds
T2 sequence (P20132 1-328 I13T/S26N/R51H/I96T/L112S/D114E/G129D/W157R/K221R/A222G/D261L): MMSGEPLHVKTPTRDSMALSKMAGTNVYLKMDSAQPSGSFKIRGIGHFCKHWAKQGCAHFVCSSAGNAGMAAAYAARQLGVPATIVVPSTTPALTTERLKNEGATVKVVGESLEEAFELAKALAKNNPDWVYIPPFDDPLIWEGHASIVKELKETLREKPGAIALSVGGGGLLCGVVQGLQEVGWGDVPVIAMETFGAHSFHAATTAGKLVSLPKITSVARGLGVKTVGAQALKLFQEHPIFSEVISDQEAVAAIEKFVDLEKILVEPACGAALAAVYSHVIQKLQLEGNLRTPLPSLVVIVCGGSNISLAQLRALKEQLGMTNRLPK
Protocol: as §1, with “minutes.” for “minutes. The supernatant from this centrifugation step was then filtered using a 0.22 μm membrane. The clarified supernatant was then applied to 1 mL of nickel-nitrotriacetic acid (Ni-NTA) resin that had been pre-equilibrated with 20 mL of pET lysis buffer. The resin was washed with 20 mL (20 column volumes) of pET lysis buffer. Afterward, the resin was incubated with 3 mL of pET elution buffer (10 mM NaH2POd4, 250 mM imidazole, 300 mM NaCl, pH 8.0), equilibrated for 5 minutes, and then eluted. The elution step was then repeated with 2 ml of extra elution buffer to increase recovery.”

[3] = molecular target: T3, human serine dehydratase (hSDH) Variant 4 (I13T, S26N, R51H, I96T, D114E, G129D, K221R, A222S, W157R, D261L, L112S), SEQ ID NO: 5 (Homo sapiens, UniProt P20132, A222S/D114E/D261L/G129D/I13T/I96T/K221R/L112S/R51H/S26N/W157R); assay: MBTH assay, kcat/Km of purified hSDH Variant 4; conditions: role: substrate; threonine 1-100 mM, 1-2 μM enzyme, 37 °C, 20 seconds
T3 sequence (P20132 1-328 I13T/S26N/R51H/I96T/L112S/D114E/G129D/W157R/K221R/A222S/D261L): T2 sequence (P20132 1-328 I13T/S26N/R51H/I96T/L112S/D114E/G129D/W157R/K221R/A222G/D261L) with G222S
Protocol: as §1, with “minutes.” for “minutes. The supernatant from this centrifugation step was then filtered using a 0.22 μm membrane. The clarified supernatant was then applied to 1 mL of nickel-nitrotriacetic acid (Ni-NTA) resin that had been pre-equilibrated with 20 mL of pET lysis buffer. The resin was washed with 20 mL (20 column volumes) of pET lysis buffer. Afterward, the resin was incubated with 3 mL of pET elution buffer (10 mM NaH2POd4, 250 mM imidazole, 300 mM NaCl, pH 8.0), equilibrated for 5 minutes, and then eluted. The elution step was then repeated with 2 ml of extra elution buffer to increase recovery.”

[4] = molecular target: T4, human serine dehydratase (hSDH) Variant 2 (S26N, R51H, S63P, M70I, L94P, G129D, A204S, K221R, A222S), SEQ ID NO: 3 (Homo sapiens, UniProt P20132, A204S/A222S/G129D/K221R/L94P/M70I/R51H/S26N/S63P); assay: MBTH assay, kcat/Km of purified hSDH Variant 2; conditions: role: substrate; threonine 1-100 mM, 1-2 μM enzyme, 37 °C, 20 seconds
T4 sequence (P20132 1-328 S26N/R51H/S63P/M70I/L94P/G129D/A204S/K221R/A222S): T1 sequence (P20132 1-328) with S26N, R51H, S63P, M70I, L94P, G129D, A204S, K221R, A222S
Protocol: as §1, with “minutes.” for “minutes. The supernatant from this centrifugation step was then filtered using a 0.22 μm membrane. The clarified supernatant was then applied to 1 mL of nickel-nitrotriacetic acid (Ni-NTA) resin that had been pre-equilibrated with 20 mL of pET lysis buffer. The resin was washed with 20 mL (20 column volumes) of pET lysis buffer. Afterward, the resin was incubated with 3 mL of pET elution buffer (10 mM NaH2POd4, 250 mM imidazole, 300 mM NaCl, pH 8.0), equilibrated for 5 minutes, and then eluted. The elution step was then repeated with 2 ml of extra elution buffer to increase recovery.”

[5] = molecular target: T5, human serine dehydratase (hSDH) Variant 1 (K221F, A222S), SEQ ID NO: 2 (Homo sapiens, UniProt P20132, A222S/K221F); assay: MBTH assay, kcat/Km of purified hSDH Variant 1; conditions: role: substrate; threonine 1-100 mM, 1-2 μM enzyme, 37 °C, 20 seconds
T5 construct: hexahistidine (N); made in house; host or cells: E. coli BL21 (DE3), pET28a
T5 sequence (P20132 1-328 K221F/A222S): T1 sequence (P20132 1-328) with K221F, A222S
Protocol: as §1, with “minutes.” for “minutes. The supernatant from this centrifugation step was then filtered using a 0.22 μm membrane. The clarified supernatant was then applied to 1 mL of nickel-nitrotriacetic acid (Ni-NTA) resin that had been pre-equilibrated with 20 mL of pET lysis buffer. The resin was washed with 20 mL (20 column volumes) of pET lysis buffer. Afterward, the resin was incubated with 3 mL of pET elution buffer (10 mM NaH2POd4, 250 mM imidazole, 300 mM NaCl, pH 8.0), equilibrated for 5 minutes, and then eluted. The elution step was then repeated with 2 ml of extra elution buffer to increase recovery.”

[6] = molecular target: T6, human serine dehydratase (hSDH) Variant 3 (S26N, R51H, S63P, M70I, L94P, G129D, A204S, K221R, A222S, L112S), SEQ ID NO: 4 (Homo sapiens, UniProt P20132, A204S/A222S/G129D/K221R/L112S/L94P/M70I/R51H/S26N/S63P); assay: MBTH assay, kcat/Km of purified hSDH Variant 3; conditions: role: substrate; threonine 1-100 mM, 1-2 μM enzyme, 37 °C, 20 seconds
T6 sequence (P20132 1-328 S26N/R51H/S63P/M70I/L94P/L112S/G129D/A204S/K221R/A222S): T1 sequence (P20132 1-328) with S26N, R51H, S63P, M70I, L94P, L112S, G129D, A204S, K221R, A222S
Protocol: as §1, with “minutes.” for “minutes. The supernatant from this centrifugation step was then filtered using a 0.22 μm membrane. The clarified supernatant was then applied to 1 mL of nickel-nitrotriacetic acid (Ni-NTA) resin that had been pre-equilibrated with 20 mL of pET lysis buffer. The resin was washed with 20 mL (20 column volumes) of pET lysis buffer. Afterward, the resin was incubated with 3 mL of pET elution buffer (10 mM NaH2POd4, 250 mM imidazole, 300 mM NaCl, pH 8.0), equilibrated for 5 minutes, and then eluted. The elution step was then repeated with 2 ml of extra elution buffer to increase recovery.”

Compound | kcat/KM (L-serine to pyruvate) ([1]; irreversible deamination of L-serine to pyruvate) | Kcat /Km (Threonine) [2] | kcat/KM (L-threonine to α-ketobutyrate) ([1]; irreversible deamination of L-threonine to α-ketobutyrate) | Kcat /Km (Threonine) ([1]; threonine 1-100 mM, 1-2 μM enzyme, 37 °C, 20 seconds) | Kcat /Km (Threonine) [3] | Kcat /Km (Threonine) [4] | Kcat /Km (Threonine) [5] | Kcat /Km (Threonine) [6]
N[C@@H](CO)C(=O)O [Serine, L-serine] | ~ 0.6 s^−1 mM^−1 |  |  |  |  |  |  | 
C[C@@H](O)[C@H](N)C(=O)O [Threonine, L-threonine] |  | 1700 ± 100 M⁻¹ s⁻¹ | ~ 1.1 s^−1 mM^−1 | 1100 ± 50 M⁻¹ s⁻¹ | 6800 ± 700 M⁻¹ s⁻¹ | 2000 ± 50 M⁻¹ s⁻¹ | 3800 ± 300 M⁻¹ s⁻¹ | 2800 ± 200 M⁻¹ s⁻¹
